Molecular target: T1, human GPR40 (Homo sapiens, UniProt O14842)
T1 construct: expressed in transfected cells; host or cells: CHO-K1
Assay: Induction of Ca2+ (calcium flux assay) using human GPR40 expression cell line
Assay type: cell-based
Settings: read-out: EC0.5
Protocol: Evaluation of the Test Compounds for Induction of Ca^2+ Using Human GPR40 Expression Cell Line
The cell line expressing human GPR40 was generated by transfection of the GPR40 expression vector into CHO-K1 cell, and used in the following calcium flux assay.
The cell line was cultured in cell-culture medium (F-12 (Invitrogen) supplemented with 10% (v/v) FBS (Fetal Bovine Serum; Invitrogen), 0.5 mg/ml Geneticin (Invitrogen) and 1% (v/v) Antibiotic-Antimycotic solution (Invitrogen)) under the condition of 5% CO2 and 37° C. For calcium flux assay, the cells were diluted with the cell-culture medium to a concentration of 5×10^5 cells/ml, and the diluted cell suspension was dispensed in amount of 100 μl/well to a 96-well transparent bottom black polystyrene cell culture plate (Corning) and then cultured for 24 hours. The following concentrations of test compounds were added to these cells, and then the changes in intracellular calcium concentration were measured by FlexStation II384 (Molecular Devices). The following solution was prepared before the measurement.
First, a buffer solution for assay was prepared for use in the manufacture of fluorescent dye solution. This buffer solution was prepared by adding 1M HEPES solution (Invitrogen) to HBSS (Hanks' Balanced Salt Solution) (Invitrogen) and then adding 1M NaOH (Nacalai Tesque) to adjust pH to 7.4. Then the fluorescent dye solution was prepared according to the manufacturer's instruction attached to Calcium 5 Assay Kit (Molecular Devices), and the final DMSO concentration was adjusted to 2%.
The fluorescent dye solution was added in an amount of 100 μl/well to supernatant of the cell culture plate cultured for 24 hours. The plate was cultured for 1 hour under the condition of 5% CO2 and 37° C. so that the fluorescent dye was inserted into the cell.
Test compounds (i.e., the compounds prepared in the Examples) dissolved in dimethyl sulfoxide (DMSO ACROS) were diluted 200-fold in the buffer solution for assay to prepare compound solutions corresponding to the respective concentrations. […] 50 μl of the prepared sample solutions was added to each well of 96-well polypropylene plates (NUNC), and thereby a compound plate was prepared. Finally, the compound plate and the cell culture plate cultured for 1 hour with the fluorescent dye were placed in FlexStation II384.
After the above pre-treatment, the change in the intracellular calcium concentration when each concentration of the test compound solutions was added at 50 μl was measured by FlexStation II^384.
Then, the relative activity values depending on the concentration of the compound were plotted using Prism 4 software (GraphPad) to calculate the EC0.5 value.

T1 sequence (O14842 whole entry): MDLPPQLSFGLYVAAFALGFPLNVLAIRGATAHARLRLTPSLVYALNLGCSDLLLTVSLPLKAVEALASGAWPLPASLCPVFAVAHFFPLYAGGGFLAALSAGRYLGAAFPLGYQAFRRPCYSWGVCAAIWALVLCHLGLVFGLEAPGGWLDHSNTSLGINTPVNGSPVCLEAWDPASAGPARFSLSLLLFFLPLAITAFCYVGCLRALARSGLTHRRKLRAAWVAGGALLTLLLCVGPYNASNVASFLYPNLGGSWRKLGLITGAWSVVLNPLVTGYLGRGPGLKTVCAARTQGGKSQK

SMILES | EC50 [µM]
CC#C[C@@H](CC(=O)O)c1ccc(OCc2ccnc3c2ccn3C(C)C)cc1 [Example 224, (S)-3-[4-(1-isopropyl-1H-pyrrolo[2,3-b]pyridin-4-ylmethoxy)-phenyl]-hex-4-ynoic acid] | 0.027
CC#C[C@@H](CC(=O)O)c1ccc(OCc2ccc3cnn(Cc4cnc(C)cn4)c3c2)cc1 [Example 73, (S)-3-{4-[1-(5-methyl-pyrazin-2-ylmethyl)-1H-indazol-6-ylmethoxy]-phenyl}-hex-4-ynoic acid] | 0.05 to 0.5
CC#C[C@@H](CC(=O)O)c1ccc(OCc2ccc3nn(CC4CCOC4)cc3c2)cc1 (stereo partly drawn) [Example 154, (S)-3-{4-[2-(tetrahydrofuran-3-ylmethyl)-2H-indazol-5-ylmethoxy]-phenyl}-hex-4-ynoic acid] | ≥ 0.5
O=C(O)CCc1ccc(OCc2cccc3c2ccn3Cc2ccccc2)cc1F [Example 54, 3-[4-(1-benzyl-1H-indol-4-ylmethoxy)-2-fluoro-phenyl]-propanoic acid] | 0.05 to 0.5
CC#C[C@@H](CC(=O)O)c1ccc(OCc2ccc3ccn(Cc4cccc(COC)c4)c3c2C)cc1 [Example 30, (S)-3-{4-[1-(3-methoxymethyl-benzyl)-7-methyl-1H-indol-6-ylmethoxy]-phenyl}-hex-4-ynoic acid] | 0.04
Cc1cc(COc2ccc3c(c2)OCCC3CC(=O)O)cc2cnn(Cc3ccccc3)c12 (centres unmarked) [Example 129, [7-(1-benzyl-7-methyl-1H-indazol-5-ylmethoxy)-chroman-4-yl]-acetic acid] | 0.08
CC#C[C@@H](CC(=O)O)c1ccc(OCc2ccc3cc(CCOC)n(Cc4ccccc4)c3c2)cc1 [Example 34, (S)-3-{4-[1-benzyl-2-(2-methoxy-ethyl)-1H-indol-6-ylmethoxy]-phenyl}-hex-4-ynoic acid] | 0.04
CC#C[C@@H](CC(=O)O)c1ccc(OCc2ccc3cnn(CC(C)(C)C)c3c2)cc1 [Example 182, (S)-3-{4-[1-(2,2-dimethyl-propyl)-1H-indazol-6-ylmethoxy]-phenyl}-hex-4-ynoic acid] | 0.001 to 0.05
CC#C[C@@H](CC(=O)O)c1ccc(OCc2cccc3c(Br)nn(C)c23)cc1 [Example 195, (S)-3-[4-(3-bromo-1-methyl-1H-indazol-7-ylmethoxy)-phenyl]-hex-4-ynoic acid] | 0.006
O=C(O)CC1CCOc2cc(OCc3ccc4c(cnn4Cc4ccccn4)c3)ccc21 (centres unmarked) [Example 142, [7-(1-pyridine-2-ylmethyl-1H-indazol-5-ylmethoxy)-chroman-4-yl]-acetic acid] | ≥ 0.5
CC#C[C@@H](CC(=O)O)c1ccc(OCc2ccc3c(F)nn(CC)c3c2C)cc1 [Example 214, (S)-3-[4-(1-ethyl-3-fluoro-7-methyl-1H-indazol-6-ylmethoxy)-phenyl]-hex-4-ynoic acid] | 0.002
CC#C[C@@H](CC(=O)O)c1ccc(OCc2cccc3c2c(F)nn3CC2CC2)cc1 [Example 200, (S)-3-[4-(1-cyclopropylmethyl-3-fluoro-1H-indazol-4-ylmethoxy)-phenyl]-hex-4-ynoic acid] | 0.009
CC#C[C@@H](CC(=O)O)c1ccc(OCc2ccc3c(c2)nnn3Cc2ccccc2)cc1 [Example 124, (S)-3-[4-(1-benzyl-1H-benzotriazol-5-ylmethoxy)-phenyl]-hex-4-ynoic acid] | 0.05
O=C(O)CC1CCOc2cc(OCc3ccc4c(cnn4Cc4ccccc4)c3)ccc21 (centres unmarked) [Example 120, [7-(1-benzyl-1H-indazol-5-ylmethoxy)-chroman-4-yl]-acetic acid] | 0.04
CC#C[C@@H](CC(=O)O)c1ccc(OCc2ccc3cnn(Cc4ccc(F)cc4)c3c2)cc1 [Example 66, (S)-3-{4-[1-(4-fluoro-benzyl)-1H-indazol-6-ylmethoxy]-phenyl}-hex-4-ynoic acid] | 0.01
O=C(O)CCc1ccc(NCc2ccc3ccn(CCc4ccccc4)c3c2)cc1 [Example 4, 3-{4-[(1-phenethyl-1H-indol-6-ylmethyl)-amino]-phenyl}-propanoic acid] | 0.05
CC#C[C@@H](CC(=O)O)c1ccc(OCc2ccc3c(COC)nn(CC(C)C)c3c2)cc1 [Example 188, (S)-3-[4-(1-isobutyl-3-methoxymethyl-1H-indazol-6-ylmethoxy)-phenyl]-hex-4-ynoic acid] | 0.005
CC#C[C@@H](CC(=O)O)c1ccc(OCc2ccc3ccn(Cc4ccccc4)c3c2C)cc1 [Example 25, (S)-3-[4-(1-benzyl-7-methyl-1H-indol-6-ylmethoxy)-phenyl]-hex-4-ynoic acid] | 0.02

SMILES | EC50 [µM]
CC#C[C@@H](CC(=O)O)c1ccc(OCc2ccc3cnn(Cc4ncccn4)c3c2)cc1 [Example 68, (S)-3-[4-(1-pyrimidin-2-ylmethyl-1H-indazol-6-ylmethoxy)-phenyl}-hex-4-ynoic acid] | 0.05 to 0.5
CC#C[C@@H](CC(=O)O)c1ccc(OCc2ccc3c(CN4CCC(F)(F)C4)nn(CC(C)C)c3c2C)cc1 [Example 230, (S)-3-{4-[3-(3,3-difluoro-pyrrolidin-1-ylmethyl)-1-isobutyl-7-methyl-1H-indazol-6-ylmethoxy]-phenyl}-hex-4-ynoic acid] | 0.001 to 0.05
Cn1ncc2ccc(COc3ccc([C@H](CC(=O)O)c4ccon4)cc3)cc21 [Example 101, (S)-3-isoxazol-3-yl-3-[4-(1-methyl-1H-indazol-6-ylmethoxy)-phenyl]-propanoic acid] | 0.09
CC#C[C@@H](CC(=O)O)c1ccc(OCc2ccc3c(cnn3CC3CCCC3)c2)cc1 [Example 163, (S)-3-[4-(1-cyclopentylmethyl-1H-indazol-5-ylmethoxy)-phenyl]-hex-4-ynoic acid] | 0.001 to 0.05
O=C(O)CC(C1=NOCC1)c1ccc(OCc2ccc3cnn(Cc4ccccc4)c3c2)cc1 (centres unmarked) [Example 65, 3-[4-(1-benzyl-1H-indazol-6-ylmethoxy)-phenyl]-3-(4,5-dihydro-isoxazol-3-yl)-propanoic acid] | 0.05
O=C(O)CCc1ccc(NCc2ccc3ccn(Cc4ccccc4)c3c2Cl)cc1 [Example 7, 3-{4-[(1-benzyl-7-chloro-1H-indol-6-ylmethyl)-amino]-phenyl}-propanoic acid] | 0.02
CC(CC(=O)O)c1ccc(OCc2ccc3c(cnn3Cc3ccccc3)c2)cc1 (centres unmarked) [Example 158, 3-[4-(1-benzyl-1H-indazol-5-ylmethoxy)-phenyl]-butyric acid] | 0.05
O=C(O)CC1CCc2cc(OCc3ccc4cnn(Cc5ccccc5)c4c3)ccc21 (centres unmarked) [Example 109, [5-(1-benzyl-1H-indazol-6-ylmethoxy)-indan-1-yl]-acetic acid] | 0.4
CC#C[C@@H](CC(=O)O)c1ccc(OCc2ccc3c(Cn4cccn4)nn(C(C)C)c3c2)cc1 [Example 202, (S)-3-[4-(1-isopropyl-3-pyrazol-1-ylmethyl-1H-indazol-6-ylmethoxy)-phenyl]-hex-4-ynoic acid] | 0.008
O=C(O)C[C@@H](c1ccc(OCc2cccc3c2cnn3Cc2ccccc2)cc1)c1ccon1 [Example 94, (S)-3-[4-(1-benzyl-1H-indazol-4-ylmethoxy)-phenyl]-3-isoxazol-3-yl-propanoic acid] | 0.06
CC#C[C@@H](CC(=O)O)c1ccc(OCc2ccc3c(ccn3Cc3ccccc3)c2)cc1 [Example 123, (S)-3-[4-(1-benzyl-1H-indol-5-ylmethoxy)-phenyl]-hex-4-ynoic acid] | 0.001 to 0.05
CC#C[C@@H](CC(=O)O)c1ccc(OCc2ccc3onc(CC(C)C)c3c2)cc1 [Example 181, (S)-3-[4-(3-isobutyl-benzo[d]isoxazol-5-ylmethoxy)-phenyl]-hex-4-ynoic acid] | 0.006
CC#C[C@@H](CC(=O)O)c1ccc(OCc2ccc3cnn(C(C)C)c3c2)cc1 [Example 180, (S)-3-[4-(1-isopropyl-1H-indazol-6-ylmethoxy)-phenyl]-hex-4-ynoic acid] | 0.001 to 0.05
CC#C[C@@H](CC(=O)O)c1ccc(OCc2cccc3c2cnn3CCCC)cc1 [Example 197, (S)-3-[4-(1-butyl-1H-indazol-4-ylmethoxy)-phenyl]-hex-4-ynoic acid] | 0.005
CC#C[C@@H](CC(=O)O)c1ccc(OCc2ccc3c(cnn3CC(C)C)c2)cc1 [Example 132, (S)-3-[4-(1-isobutyl-1H-indazol-5-ylmethoxy)-phenyl]-hex-4-ynoic acid] | 0.001 to 0.05
CC#C[C@@H](CC(=O)O)c1ccc(OCc2ccc3c(c2)ncn3Cc2ccccc2)cc1 [Example 125, (S)-3-[4-(1-benzyl-1H-benzoimidazol-5-ylmethoxy)-phenyl]-hex-4-ynoic acid] | 0.02
CC#C[C@@H](CC(=O)O)c1ccc(OCc2ccc3c(C)nn(C(C)C)c3c2)cc1 [Example 185, (S)-3-[4-(1-isopropyl-3-methyl-1H-indazol-6-ylmethoxy)-phenyl]-hex-4-ynoic acid] | 0.001 to 0.05
